Structures are written as SMILES.

The text below walks through data of patent publication US7479385B2, “Sugar kinases with expanded substrate specificity and their use” (Wisconsin Alumni Research Foundation, priority 2003, dated 2009).

In test [1] the target is T1, E. coli double M173L-Y371H mutant GalK (Escherichia coli, UniProt P0A6T3, M173L/Y371H).
T1 construct: His-tag (concluded from Ni-NTA purification and vector pET15b); made in house
In words: Substrate screen / percent conversion of 45 sugars, M173L-Y371H. The test is classed as biochemical. The settings on record: for in vitro conversion by M173L-Y371H: in 2 hrs. From the text:
Characterization of GalK Mutants. […] The mutant enzymes were purified by using metal affinity chromatography on Ni-NTA Spin Columns (QIAGEN, Valencia, Calif.) and fractions containing homogenous protein were collected, concentrated and quantified using the Bradford protein assay. The DNS assay was used to assess the substrate specificity of the purified GalK mutants as previously described. […] For each sugar, the DNS assay was used to monitor the reaction progress and control assays in the absence of enzyme or sugar were performed in parallel. Standard curves for each sugar were prepared as described. To assess general percent conversion, each reaction contained 15.0 (M enzyme, 8 mM sugar, 14 mM ATP and 3.5 mM MgCl2. […] For monosaccharide kinetic data determination, the sugar concentration was varied over a range of 1-8 mM, under saturating ATP (14 mM). Reaction progress was assessed via the DNS assay, wherein a change in absorbance at 575 nm as a function of time was obtained and the initial velocity determined by the slope of the linear phase in the progress curve. The kinetic data was analyzed using Enzyme Kinetics Module software (SSPS, Inc., Chicago, Ill.) as previously described.
(§1) Characterization of Engineered E. coli GalK Mutants.

Test [2] concerns the target T2, wild-type E. coli GalK (Escherichia coli, UniProt P0A6T3).
T2 construct: made in house
T2 sequence (P0A6T3 1-382): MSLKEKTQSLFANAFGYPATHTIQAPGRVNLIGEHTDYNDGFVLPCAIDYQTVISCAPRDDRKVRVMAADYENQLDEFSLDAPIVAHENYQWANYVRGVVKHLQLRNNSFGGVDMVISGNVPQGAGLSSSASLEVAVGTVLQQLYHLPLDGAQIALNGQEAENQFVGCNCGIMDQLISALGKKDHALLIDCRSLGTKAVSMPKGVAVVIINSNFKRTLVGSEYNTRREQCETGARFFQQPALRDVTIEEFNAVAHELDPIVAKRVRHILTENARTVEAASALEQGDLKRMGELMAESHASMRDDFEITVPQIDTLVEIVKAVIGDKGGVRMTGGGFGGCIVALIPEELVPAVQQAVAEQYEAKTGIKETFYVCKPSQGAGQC
It counts as biochemical.
From the text: (§2) Characterization of GalK Mutants. […] The mutant enzymes were purified by using metal affinity chromatography on Ni-NTA Spin Columns (QIAGEN, Valencia, Calif.) and fractions containing homogenous protein were collected, concentrated and quantified using the Bradford protein assay. The DNS assay was used to assess the substrate specificity of the purified GalK mutants as previously described. […] For each sugar, the DNS assay was used to monitor the reaction progress and control assays in the absence of enzyme or sugar were performed in parallel. Standard curves for each sugar were prepared as described. To assess general percent conversion, each reaction contained 15.0 (M enzyme, 8 mM sugar, 14 mM ATP and 3.5 mM MgCl2. The reactions were incubated at 37° C. for 3 hrs after which the reactions were quenched with MeOH, centrifuged (10 min, 12,000 rpm) and then the supernatant (diluted 20-fold) submitted for LC-MS and MS/MS analysis. For monosaccharide kinetic data determination, the sugar concentration was varied over a range of 1-8 mM, under saturating ATP (14 mM). Reaction progress was assessed via the DNS assay, wherein a change in absorbance at 575 nm as a function of time was obtained and the initial velocity determined by the slope of the linear phase in the progress curve. The kinetic data was analyzed using Enzyme Kinetics Module software (SSPS, Inc., Chicago, Ill.) as previously described.
as §1

In test [3] the target is T3, E. coli GalK Y371H mutant (Escherichia coli, UniProt P0A6T3, Y371H).
T3 construct: His-tag (concluded from Ni-NTA purification and vector pET15b); made in house; host or cells: E. coli BL21-Gold (DE3), vector pET15b
T3 sequence (P0A6T3 whole entry Y371H): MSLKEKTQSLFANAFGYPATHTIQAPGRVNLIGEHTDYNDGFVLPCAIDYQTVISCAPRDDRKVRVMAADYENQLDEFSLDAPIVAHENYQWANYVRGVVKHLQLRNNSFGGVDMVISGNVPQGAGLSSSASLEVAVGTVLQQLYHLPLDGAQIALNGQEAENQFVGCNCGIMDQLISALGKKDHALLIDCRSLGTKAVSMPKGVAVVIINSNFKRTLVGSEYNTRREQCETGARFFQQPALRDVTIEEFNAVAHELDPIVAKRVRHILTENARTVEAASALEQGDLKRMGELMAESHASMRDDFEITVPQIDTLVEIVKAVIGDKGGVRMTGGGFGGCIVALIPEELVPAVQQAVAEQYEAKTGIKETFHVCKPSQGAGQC
It counts as biochemical.
From the text: as §2, §1

The target in another test is T4, Y371H-M173L GalK (Escherichia coli, UniProt P0A6T3, M173L/Y371H).
T4 construct: His-tag (concluded: same plasmid pGalKMLYH in pET-15b whose product was purified on Ni-NTA); expressed in transfected cells; host or cells: E. coli host carrying pGalKMLYH (pET-15b), IPTG-induced at 16 °C
T4 sequence (P0A6T3 whole entry M173L/Y371H): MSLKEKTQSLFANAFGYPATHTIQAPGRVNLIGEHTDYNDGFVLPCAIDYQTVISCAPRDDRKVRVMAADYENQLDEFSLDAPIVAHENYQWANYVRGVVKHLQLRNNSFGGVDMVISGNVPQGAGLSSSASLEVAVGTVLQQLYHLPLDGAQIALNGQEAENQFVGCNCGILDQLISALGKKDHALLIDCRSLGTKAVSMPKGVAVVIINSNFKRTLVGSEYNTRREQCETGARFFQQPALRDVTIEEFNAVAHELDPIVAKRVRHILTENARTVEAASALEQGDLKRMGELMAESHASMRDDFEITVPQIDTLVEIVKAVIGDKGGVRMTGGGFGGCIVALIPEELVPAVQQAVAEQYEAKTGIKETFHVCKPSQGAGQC
In words: In vivo conversion of fed unnatural sugars to sugar-1-phosphates in E. coli host overexpressing GalK double mutant. The conditions noted are these: sugar fed at 4 mM to E. coli overexpressing Y371H-M173L GalK, 16° C., 16 hr; fluorescence HPLC after labelling with 50. It counts as cell-based. From the text: FIG. 9. In vivo GalK-catalyzed sugar-1-phosphate production. (a) Experimental overview using 6-azido-6-deoxy-D-galactose (22) as an example: 22 is fed to an E. coli host expressing the M173L-Y371H GalK double mutant and the reactants and products subsequently labeled using a […] with the fluorescent tag 50. (b) HPLC chromatographs of bioconversions: i)22 with Y371H-M173L GalK; ii)46 with Y371H-M173L GalK; iii) 22 with wild-type GalK. MS: 50, calculated for C20H25N3O3S 387.2, found m/z 386.1 [M−H]^−; 51, calculated for C26H37N6O11PS 672.2, found m/z 671.2 [M−H]^−; 52, calculated for C26H36N6O8S 592.2, found m/z 591.2 [M−H]
In Vivo Conversion Analysis. […] The reaction mixture was subsequently centrifuged to remove CuI and the supernatant (diluted 2-fold) directly analyzed by HPLC and LC-MS calculated for C26H37N6O11PS 672.20, found m/z […] 671.20.
To assess the Y371H-M173L GalK-catalyzed in vivo production of unnatural sugar-1-phosphates (FIG. 9a), the unnatural sugars (22 or 46, 4 mM final concentration) were fed to an E. coli host (40 mL culture) which overexpressed the promiscuous GalK. After a designated time, the extracts were analyzed via the specific attachment of a fluorescent tag (50), to both starting material (22 or 46) and desired sugar-1-phosphate products, using 1,3-dipolar cycloaddition. […]

Test [4] deals with T5, E. coli GalK M173L mutant (Escherichia coli, UniProt P0A6T3, M173L).
T5 construct: His-tag (concluded from Ni-NTA purification and vector pET15b); made in house
T5 sequence (P0A6T3 whole entry M173L): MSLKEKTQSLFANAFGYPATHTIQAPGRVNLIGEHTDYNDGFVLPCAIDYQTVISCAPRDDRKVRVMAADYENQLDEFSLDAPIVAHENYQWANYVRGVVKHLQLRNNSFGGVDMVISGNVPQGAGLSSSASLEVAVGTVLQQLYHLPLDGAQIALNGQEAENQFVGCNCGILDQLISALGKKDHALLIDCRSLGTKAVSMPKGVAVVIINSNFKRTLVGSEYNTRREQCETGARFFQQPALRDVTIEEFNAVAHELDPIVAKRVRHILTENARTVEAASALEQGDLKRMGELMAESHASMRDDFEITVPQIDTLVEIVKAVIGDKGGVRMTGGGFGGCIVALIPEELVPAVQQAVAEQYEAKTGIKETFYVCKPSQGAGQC
Description: Substrate screen / percent conversion of 45 sugars, M173L. The test is classed as biochemical.
From the text: as §2, §1

The target of test [5] is T2, wild-type E. coli GalK. Description: Kinetics and substrate specificity of wild-type GalK with sugar substrates (DNS assay), Table 1. It counts as biochemical.
In another test the target is GalK mutant Y371H (Escherichia coli, UniProt P0A6T3, Y371H). The settings on record: DNS assay and thin layer chromatography.
Sequence of GalK mutant Y371H (P0A6T3 whole entry Y371H): as the sequence (P0A6T3 whole entry Y371H) above
The next test has as its target T6, GalK variant Y371H (Escherichia coli, UniProt P0A6T3, Y371H).
T6 construct: His-tag (concluded from Ni-NTA purification and vector pET15b); made in house; host or cells: E. coli BL21-Gold (DE3), vector pET15b
Description: Preparative phosphorylation of L-altrose by GalK Y371H, conversion by DNS assay. The test is classed as biochemical, E. coli. The conditions noted are these: within four hours, 37° C., Y371H 150 μg mL^−1. The method, then:
Preparative phosphorylation of L-altrose and product characterization. […] To this solution, ATP (125 mg, 0.23 mmol), MgCl2.6H2O (15.3 mg, 0.07 mmol) were added, the mixture incubated at 37° C. for 5 min, the reaction initiated via the addition of enzyme (Y371H) to a final concentration of 150 μg mL^−1 and reaction progress monitored by TLC. After completion, the mixture was diluted 5-fold in ddH2O and applied to a 200 mL anion exchange column (Q-Sepharose fast flow, Amersham, Piscataway, N.J.). The column was eluted with a gradient of 0-400 mM NaCl and the active fraction was collected and evaporated under reduced pressure. The crude product was desalted on a P-2 gel filtration column (The Nest Group, Southboro, Mass.) to give 16.1 mg of purified product (yield: 52%). [α]D=3.5° (c=1, H2O) ^1H NMR (D2O): 5.48 (dd, J=8.6, 1.8 Hz, 1H), 4.14 (dd, 5.3, 3.3 Hz, 1H), 3.99 (m, 1H), 3.98 (dd, J=4.3, 1.8 Hz, 1H), 3.91 (d, J=3.3, 1H), 3.89 (m, 1H), 3.84 (dd, J=12.1, 7.8 Hz, 1H); ^13C NMR (D2O): 94.10, 76.23, 70.70, 69.99, 65.68, 62.21; ^31P NMR (D2O): 3.77; MS: calculated for C6H13O9P 260.0, found m/z 259.0 [M−H]^−.
Confirmation of L-sugar conversion. […] To confirm the evolved enzyme retains regio- and stereoselectivity with L-sugar substrates, a representative L-sugar reaction product was further characterized. […]

T1 sequence (P0A6T3 whole entry M173L/Y371H): as the sequence (P0A6T3 whole entry M173L/Y371H) above
T6 sequence (P0A6T3 whole entry Y371H): as the sequence (P0A6T3 whole entry Y371H) above

For the compound `[N-]=[N+]=NC[C@@H](O)[C@H](O)[C@H](O)[C@@H](O)C=O` [6-azido-6-deoxy-D-galactose (22), 6-azido-6-deoxy-D-galactose], in test [1], the “kinase activity of M173L-Y371H double mutant (in words)” value is listed as “accept”, the “in vitro yield (conversion) quoted for comparison with in vivo” value is recorded as ~50% and the “in vitro conversion by M173L-Y371H” value is > 50%. On wild-type E. coli GalK [2], the “substrate of wild-type E. coli GalK (in words)” value is “not a substrates”. Moreover, in test [3], the “substrate of Y371H (in words)” value was “failed”. The “in vivo conversion to sugar-1-phosphate” value at Y371H-M173L GalK is ~69%. For the same compound, the “substrate of M173L (in words)” value in test [4] was “failed”.
Turning to `[N-]=[N+]=NC[C@@H](O)[C@@H](O)[C@H](O)[C@@H](O)C=O` [6-azido-6-deoxy-D-glucose (46), 6-azido-6-deoxy-D-glucose], in test [1], the “kinase activity of M173L-Y371H double mutant (in words)” value is listed as “accept”, the “in vitro yield (conversion) quoted for comparison with in vivo” value is given as ~50% and the “in vitro conversion by M173L-Y371H” value is ~15%. Also, the “substrate of wild-type E. coli GalK (in words)” value on wild-type E. coli GalK [2] was “not a substrates”. Also, the “substrate of Y371H (in words)” value in test [3] is given as “failed”. Besides, at Y371H-M173L GalK, the “in vivo conversion to sugar-1-phosphate” value was ~15%. Further, the “substrate of M173L (in words)” value in test [4] is “failed”.
For the compound `O=C[C@H](O)[C@@H](O)[C@@H](O)[C@@H](O)CO` [L-Alt (16), L-altrose], on wild-type E. coli GalK [5], the “substrate of wild-type GalK (in words)” value is reported as “failed as wild-type GalK substrates”. Besides, on GalK mutant Y371H, the “kinase activity / turnover by GalK Y371H (in words)” value is “substantial degree of kinase activity”. Further, on GalK variant Y371H, the “conversion of L-altrose” value turned out to be 91%.
